Reference: PubChem BioAssay (NCI)
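Compound exposure: 48 hours, 5 concentrations, 96-well plates. Abbreviation: GI50, concentration required for 50% inhibition of growth. TGI: total growth inhibition.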

Experiments:
Test in all cases: inhibition of tumour cell growth, NCI panel, 48 h
HCT-116 colon = test system: HCT-116 colon
ACHN renal = test system: ACHN renal
NCI/ADR-RES ovarian = test system: NCI/ADR-RES ovarian
SNB-75 CNS = test system: SNB-75 CNS
SR leukemia = test system: SR leukemia
NCI-H460 lung = test system: NCI-H460 lung
OVCAR-4 ovarian = test system: OVCAR-4 ovarian
NCI-H226 lung = test system: NCI-H226 lung
CAKI-1 renal = test system: CAKI-1 renal
SK-MEL-5 melanoma = test system: SK-MEL-5 melanoma
A549 NSCLC = test system: A549 NSCLC
SF-268 CNS = test system: SF-268 CNS
A498 renal = test system: A498 renal
MALME-3M melanoma = test system: MALME-3M melanoma
RPMI-8226 leukemia = test system: RPMI-8226 leukemia
MDA-MB-435 = test system: MDA-MB-435
KM12 colon = test system: KM12 colon
M14 melanoma = test system: M14 melanoma
UACC-257 melanoma = test system: UACC-257 melanoma
NCI-H23 lung = test system: NCI-H23 lung
SN12C renal = test system: SN12C renal
786-0 renal = test system: 786-0 renal
OVCAR-5 ovarian = test system: OVCAR-5 ovarian
UO-31 renal = test system: UO-31 renal
MDA-MB-231 breast = test system: MDA-MB-231 breast
HCT-15 colon = test system: HCT-15 colon
SK-MEL-28 melanoma = test system: SK-MEL-28 melanoma
SW-620 colon = test system: SW-620 colon
SK-OV-3 ovarian = test system: SK-OV-3 ovarian
SF-295 CNS = test system: SF-295 CNS
COLO 205 colon = test system: COLO 205 colon
SF-539 CNS = test system: SF-539 CNS
BT-549 breast = test system: BT-549 breast
OVCAR-3 ovarian = test system: OVCAR-3 ovarian
DU-145 prostate = test system: DU-145 prostate
HL-60(TB) leukemia = test system: HL-60(TB) leukemia
HT29 colon = test system: HT29 colon
HS 578T breast = test system: HS 578T breast
K-562 leukemia = test system: K-562 leukemia
T-47D breast = test system: T-47D breast
EKVX NSCLC = test system: EKVX NSCLC
MOLT-4 leukemia = test system: MOLT-4 leukemia
TK-10 renal = test system: TK-10 renal
UACC-62 melanoma = test system: UACC-62 melanoma
CCRF-CEM leukemia = test system: CCRF-CEM leukemia
LOX IMVI melanoma = test system: LOX IMVI melanoma
PC-3 prostate = test system: PC-3 prostate
HCC-2998 colon = test system: HCC-2998 colon

COc1cc2nc(Cl)nc(Nc3cccc(C4=Nc5c(N)nc(N)nc5NC(c5ccc(F)cc5)C4)c3)c2cc1OC (stereo unspecified)
GI50 (HCT-116 colon): 1760 nM
TGI (HCT-116 colon): 3340 nM
GI50 (ACHN renal): 1740 nM
TGI (ACHN renal): 3220 nM
GI50 (NCI/ADR-RES ovarian): 6070 nM
TGI (NCI/ADR-RES ovarian): > 100000 nM
GI50 (SNB-75 CNS): 1130 nM
TGI (SNB-75 CNS): 2420 nM
GI50 (SR leukemia): 1960 nM
TGI (SR leukemia): 4800 nM
GI50 (NCI-H460 lung): 1910 nM
TGI (NCI-H460 lung): 3820 nM
GI50 (OVCAR-4 ovarian): 1630 nM
TGI (OVCAR-4 ovarian): 3380 nM
GI50 (NCI-H226 lung): 3220 nM
TGI (NCI-H226 lung): 16600 nM
GI50 (CAKI-1 renal): 1610 nM
TGI (CAKI-1 renal): 3270 nM
GI50 (SK-MEL-5 melanoma): 1650 nM
TGI (SK-MEL-5 melanoma): 3020 nM
GI50 (A549 NSCLC): 2640 nM
TGI (A549 NSCLC): 7820 nM
GI50 (SF-268 CNS): 1680 nM
TGI (SF-268 CNS): 3680 nM
GI50 (A498 renal): 1010 nM
TGI (A498 renal): 2470 nM
GI50 (MALME-3M melanoma): 2010 nM
TGI (MALME-3M melanoma): 3760 nM
GI50 (RPMI-8226 leukemia): 1770 nM
TGI (RPMI-8226 leukemia): 4420 nM
GI50 (MDA-MB-435): 1660 nM
TGI (MDA-MB-435): 3110 nM
GI50 (KM12 colon): 1880 nM
TGI (KM12 colon): 3610 nM
GI50 (M14 melanoma): 1860 nM
TGI (M14 melanoma): 3700 nM
GI50 (UACC-257 melanoma): 1960 nM
TGI (UACC-257 melanoma): 3940 nM
GI50 (NCI-H23 lung): 2000 nM
TGI (NCI-H23 lung): 4730 nM
GI50 (SN12C renal): 1720 nM
TGI (SN12C renal): 3480 nM
GI50 (786-0 renal): 1560 nM
TGI (786-0 renal): 2990 nM
GI50 (OVCAR-5 ovarian): 1790 nM
TGI (OVCAR-5 ovarian): 3550 nM
GI50 (UO-31 renal): 1550 nM
TGI (UO-31 renal): 3540 nM
GI50 (MDA-MB-231 breast): 1490 nM
TGI (MDA-MB-231 breast): 3030 nM
GI50 (HCT-15 colon): 1960 nM
TGI (HCT-15 colon): 4270 nM
GI50 (SK-MEL-28 melanoma): 1620 nM
TGI (SK-MEL-28 melanoma): 3040 nM
GI50 (SW-620 colon): 1760 nM
TGI (SW-620 colon): 3600 nM
GI50 (SK-OV-3 ovarian): 25700 nM
TGI (SK-OV-3 ovarian): 59300 nM
GI50 (SF-295 CNS): 1820 nM
TGI (SF-295 CNS): 3500 nM
GI50 (COLO 205 colon): 1770 nM
TGI (COLO 205 colon): 3510 nM
GI50 (SF-539 CNS): 1530 nM
TGI (SF-539 CNS): 2930 nM
GI50 (BT-549 breast): 2290 nM
TGI (BT-549 breast): 4360 nM
GI50 (OVCAR-3 ovarian): 1850 nM
TGI (OVCAR-3 ovarian): 3550 nM
GI50 (DU-145 prostate): 1770 nM
TGI (DU-145 prostate): 3440 nM
GI50 (HL-60(TB) leukemia): 1950 nM
TGI (HL-60(TB) leukemia): 4090 nM
GI50 (HT29 colon): 2050 nM
TGI (HT29 colon): 4380 nM
GI50 (HS 578T breast): 1980 nM
TGI (HS 578T breast): 4530 nM
GI50 (K-562 leukemia): 1960 nM
TGI (K-562 leukemia): 4680 nM
GI50 (T-47D breast): 1930 nM
TGI (T-47D breast): 4640 nM
GI50 (EKVX NSCLC): 1500 nM
TGI (EKVX NSCLC): 3990 nM
GI50 (MOLT-4 leukemia): 1770 nM
TGI (MOLT-4 leukemia): 5450 nM
GI50 (TK-10 renal): 1950 nM
TGI (TK-10 renal): 3860 nM
GI50 (UACC-62 melanoma): 1760 nM
TGI (UACC-62 melanoma): 3310 nM
GI50 (CCRF-CEM leukemia): 1050 nM
TGI (CCRF-CEM leukemia): 4140 nM
GI50 (LOX IMVI melanoma): 1780 nM
TGI (LOX IMVI melanoma): 3510 nM
GI50 (PC-3 prostate): 2170 nM
TGI (PC-3 prostate): 6680 nM
GI50 (HCC-2998 colon): 1920 nM
TGI (HCC-2998 colon): 3480 nM
